PMC9502272, “A Metabolomics Approach for Predicting OATP1B-Type Transporter-Mediated Drug–Drug Interaction Liabilities” (Pharmaceutics, 2022)
Counter-ions that a name gives are not always drawn. Like-named read-outs stand apart in the source and are kept apart here.

Tests used:
[1] = test system: Oatp1a/1b; test: Baseline plasma biomarker levels in Oatp1a/1b(−/−) cluster-knockout vs wild-type mice; format: in vivo, mouse
Description: Plasma concentrations of levels of CDCA-24G and glycochenodeoxycholate-3-sulfate (GCDCA-S) were determined using LC-MS/MS using a Vanquish UHPLC coupled with a Quantiva triple quadrupole mass spectrometer (Thermo Fisher Scientific, Waltham, MA, USA). An Accucore aQ column (50 × 2.1 mm, dp = 2.6 μm; Thermo Fisher Scientific) was protected by a C18 AQUASIL guard cartridge (2.1 mm × 10 mm, dp = 3 μm; Thermo Fisher Scientific). The injection volume of sample was 5.0 μL. The temperature of the autosampler rack was 4 °C, and the temperature of the column was maintained at 20 °C. The mobile phase was composed of solvent A (2 mmol ammonium acetate in water) and solvent B (100% methanol), and the total run time was 4.6 min. The gradient conditions were as follows: 0–0.5 min, 45% B; 0.5–2.0 min, 45 to 90%, 2.0–4.0 min, 90% B; 4.0–4.6 min, 45% B, delivered at a flow rate of 0.4 mL/min. The MS assay setting with the positive voltage applied to the ESI capillary was set at 3791 V, and the capillary temperatures was 335 °C with a vaporizer temperature of 350 °C. Argon was used as the collision gas at a pressure of 1.5 mTorr. Precursor molecular ions, and product ions were recorded for the confirmation and detection of GCDCA-S (528.4 > 448.3) and CDCA-24G (567.4 > 391.1), using [^2H5]-GCDCA-S (535.5 > 453.3) and [^2H5]-CDCA-24G (572.5 > 396.1) as respective internal standards. The lower limit of quantitation (LLOQ) for both analytes was determined to be 0.5 ng/mL. […]
Plasma concentrations of coproporphyrin I (CP-I) and III (CP-III) were determined similarly by LC-MS/MS. […] Precursor molecular ions and product ions were recorded for confirmation and detection of CP-I (655.4 > 596.4) and CP-III (655.4 > 596.3), using [^2H4]-CP-III (659.4 > 600.3) as the internal standard for both analytes. The LLOQ for both analytes were determined to be 1 ng/mL, and the within-run and between-run precisions as well as the accuracy were always within acceptable limits.

[2] = test system: OATP1B; test: Clinical study: OATP1B biomarkers in patients receiving cabazitaxel; format: in vivo, human; conditions: cabazitaxel 1 h i.v. infusion up to 25 mg/m^2
Description: Samples from patients with solid tumors were collected from 3 clinical studies conducted in accordance with the principles of the Declaration of Helsinki, and all study protocols were approved by Institutional Review Boards at either the National Cancer Institute (Bethesda, MD, USA) or the Erasmus Medical Center Cancer Institute (Rotterdam, The Netherlands). All patients provided written informed consent for their blood samples and medical information to be used for research purposes.
An Accucore aQ column (50 × 2.1 mm, dp = 2.6 μm; Thermo Fisher Scientific) was protected by a C18 AQUASIL guard cartridge (2.1 mm × 10 mm, dp = 3 μm; Thermo Fisher Scientific). The injection volume of sample was 5.0 μL. The temperature of the autosampler rack was 4 °C, and the temperature of the column was maintained at 20 °C. The mobile phase was composed of solvent A (2 mmol ammonium acetate in water) and solvent B (100% methanol), and the total run time was 4.6 min. The gradient conditions were as follows: 0–0.5 min, 45% B; 0.5–2.0 min, 45 to 90%, 2.0–4.0 min, 90% B; 4.0–4.6 min, 45% B, delivered at a flow rate of 0.4 mL/min. The MS assay setting with the positive voltage applied to the ESI capillary was set at 3791 V, and the capillary temperatures was 335 °C with a vaporizer temperature of 350 °C. […] The lower limit of quantitation (LLOQ) for both analytes was determined to be 0.5 ng/mL. […]

[3] = parameters: method as in ref PMIDs of Table S2 (18321482, 35456528, 28612269, 10997930, 27796539, 23299792, 11129729, 22808947, 12844327); conditions: ref PMIDs of Table S2 (18321482, 35456528, 28612269, 10997930, 27796539, 23299792, 11129729, 22808947, 12844327); cited from earlier work
[4] = biological target: T1, Oatp1b2 (Mus musculus, UniProt Q9JJL3); test: Untargeted metabolomics of plasma from untreated wild-type and Oatp1b2(−/−) mice; conditions: for Fold of Change KO/WT: plasma of untreated Oatp1b2-deficient (KO) vs wild-type (WT) mice, semi-quantitative, positive = higher in KO, n = 6 per group; for Mean value KO: plasma of untreated Oatp1b2-deficient mice; for Mean value KO / Mean value WT: raw area counts rescaled to median = 1; for Mean value WT: plasma of untreated wild-type mice
T1 sequence (Q9JJL3 1-689): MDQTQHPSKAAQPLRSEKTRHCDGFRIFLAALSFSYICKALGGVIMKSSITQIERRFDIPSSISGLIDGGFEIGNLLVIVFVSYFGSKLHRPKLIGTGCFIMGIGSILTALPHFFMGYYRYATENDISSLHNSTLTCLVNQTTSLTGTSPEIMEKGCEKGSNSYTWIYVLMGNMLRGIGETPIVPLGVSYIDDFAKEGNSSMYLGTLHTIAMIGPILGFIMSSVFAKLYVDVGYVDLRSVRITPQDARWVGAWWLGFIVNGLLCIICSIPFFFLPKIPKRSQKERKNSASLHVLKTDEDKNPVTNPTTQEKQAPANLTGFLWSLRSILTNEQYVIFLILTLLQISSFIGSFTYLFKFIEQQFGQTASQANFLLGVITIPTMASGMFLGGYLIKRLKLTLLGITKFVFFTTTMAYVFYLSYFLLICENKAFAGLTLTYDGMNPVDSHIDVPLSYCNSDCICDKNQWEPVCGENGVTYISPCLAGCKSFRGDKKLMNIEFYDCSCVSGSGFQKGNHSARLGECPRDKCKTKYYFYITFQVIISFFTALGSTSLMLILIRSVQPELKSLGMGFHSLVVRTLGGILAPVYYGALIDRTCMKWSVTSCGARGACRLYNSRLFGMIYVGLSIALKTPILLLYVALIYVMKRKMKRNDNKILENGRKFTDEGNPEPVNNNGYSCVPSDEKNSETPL
Description: (§1) For all experiments, age- and sex-matched mice (8–12 weeks old) were used. […] Mice with a deficiency of Oatp1b2 (Oatp1b2(−/−) mice), the single murine orthologue of OATP1B1 and OATP1B3 in humans, on a DBA/1LacJ background were kindly provided by Drs. Richard B. Kim (Western University, London, Ontario, Canada) and Jeffrey L. Stock (Pfizer, Groton, CT, USA).
(§2) Plasma samples from untreated wild-type mice and Oatp1b2(−/−) mice were analyzed for structurally named and unknown molecules using a non-targeted semi-quantitative liquid chromatography-tandem mass spectrometry (LC-MS/MS) and gas chromatography-mass spectrometry platforms (Metabolon, Durham, NC, USA). Compounds were identified by comparison with library entries of purified standards or recurrent unknown entities.

[5] = biological target: T1, Oatp1b2; conditions: in vivo
Description: as §1, §2

Molecule | Fold of Change KO/WT [4] | Mean value KO [4] | Mean value WT [4] | also measured
coproporphyrin III [CP-III] | – | – | – | Observed changes in plasma levels in Oatp1a/1b(−/−), OATP1B1(tg) or OATP1B3(tg) mice vs wild type, compared with CDCA-24G [1]: much more modest
CO[C@H]1C(=O)[C@]2(C)[C@@H](OC)C[C@H]3OC[C@@]3(OC(C)=O)[C@H]2[C@H](OC(=O)c2ccccc2)[C@]2(O)C[C@H](OC(=O)[C@H](O)[C@@H](NC(=O)OC(C)(C)C)c3ccccc3)C(C)=C1C2(C)C [Cabazitaxel, cabazitaxel] | – | – | – | Effect on plasma levels of CDCA-24G [2]: not associated with elevated plasma levels; Effect on plasma levels of GCDCA-S [2]: not associated with elevated plasma levels; Cmax [3]: 193 nM
coproporphyrin I [CP-I] | – | – | – | Observed changes in plasma levels in Oatp1a/1b(−/−), OATP1B1(tg) or OATP1B3(tg) mice vs wild type, compared with CDCA-24G [1]: much more modest
CCCCC/C=C\C/C=C\C/C=C\C/C=C\CCCC(=O)O[C@H](CO/C=C\CCCCCCCCCCCCCC)COP(=O)([O-])OCC[N+](C)(C)C [1-(1-enyl-palmitoyl)-2-arachidonoyl-GPC (P-16:0/20:4)] | 1.46 | 1.30 | .891 | –
OC[C@H]1O[C@@H](n2cnc3c(O)ncnc32)[C@H](O)[C@@H]1O [inosine] | 2.07 | 1.49 | .719 | –
CCCCC/C=C\C/C=C\C/C=C\C/C=C\CCCC(=O)OC[C@@H](O)COP(=O)([O-])OCC[N+](C)(C)C [1-arachidonoyl-GPC (20:4n6)] | 1.63 | 1.27 | .775 | –
CC(C)CCC[C@@H](C)[C@H]1CC[C@H]2[C@@H]3CC=C4C[C@@H](OS(=O)(=O)O)CC[C@]4(C)[C@H]3CC[C@]12C [cholesterol sulfate] | 1.23 | 1.08 | .875 | –
C[N+](C)(C)[C@@H](Cc1cnc[nH]1)C(=O)[O-] [histidine betaine (hercynine)] | – | – | – | Fold of Change KO/WT [5]: 1.31; Mean value KO [5]: 1.09; Mean value WT [5]: .830
CC(C)CC(O)C(=O)O (stereo not drawn) [alpha-hydroxyisocaproate] | 2.29 | 1.80 | .787 | –
CCCCCCCCCCCCCCCC(N)=O [palmitamide (16:0)] | 1.40 | 1.18 | .840 | –
CCCCC/C=C\C/C=C\C/C=C\C/C=C\CCCC(=O)O[C@H](COC(=O)CCCCCCC/C=C\C/C=C\CCCCC)COP(=O)([O-])OCC[N+](C)(C)C [1-linoleoyl-2-arachidonoyl-GPC (18:2/20:4n6)] | 1.36 | 1.15 | .846 | –
Cc1ccc(OS(=O)(=O)O)cc1 [p-cresol sulfate] | 9.29 | 4.66 | .501 | –
CCc1ccc(OS(=O)(=O)[O-])cc1.[K+] [4-ethylphenylsulfate] | 17.2 | 4.08 | .238 | –
CCCCCCCCCCCCCCCCCC(=O)OC[C@@H](O)COP(=O)(O)OCCN [1-stearoyl-GPE (18:0)] | 1.34 | 1.16 | .867 | –
CCCCCCCCCCCCCCCC(=O)OC[C@@H](O)COP(=O)(O)OCCN [1-palmitoyl-GPE (16:0)] | 1.73 | 1.33 | .765 | –
C[C@H](CCC(=O)O)[C@H]1CC[C@H]2[C@@H]3[C@H](O)[C@@H](O)[C@@H]4C[C@H](O)CC[C@]4(C)[C@H]3CC[C@]12C [alpha-muricholate] | 45.2 | 2.71 | .0600 | –

More lines, main results first:

Fold of Change KO/WT [4] | Mean value KO [4] | Mean value WT [4] | Molecule | also measured
3.71 | 1.96 | .529 | CCCCCC=CCC=CCCCCCCCC(=O)OCC(O)COP(=O)(O)OCC(O)CO (centres unmarked) [1-linoleoyl-GPG (18:2)] | –
1.30 | 1.16 | .895 | CC(C(=O)O)c1ccc(O)cc1 (centres unmarked) [2-(4-hydroxyphenyl)propionate] | –
1.59 | 1.21 | .764 | CCCCCCCCCCCCCCCCC(=O)OC(CC(=O)[O-])C[N+](C)(C)C (centres unmarked) [margaroylcarnitine (C17)] | –
1.27 | 1.20 | .944 | CC(CCC[C@@H](C)[C@H]1CC[C@H]2[C@@H]3[C@H](O)CC4=CC(=O)CC[C@]4(C)[C@H]3CC[C@]12C)C(=O)O (stereo partly drawn) [7-alpha-hydroxy-3-oxo-4-cholestenoate (7-Hoca)] | –
2.13 | 1.41 | .661 | CC/C=C\C/C=C\C/C=C\CCCCCCCC(=O)OC[C@@H](O)COP(=O)([O-])OCC[N+](C)(C)C [1-linolenoyl-GPC (18:3)] | –
1.62 | 1.47 | .910 | CCCCCCCC(=O)O[C@H](CC(=O)O)C[N+](C)(C)C [octanoylcarnitine (C8)] | –
2.58 | 1.62 | .626 | equol sulfate | –
1.33 | 1.10 | .828 | CCCCC/C=C\C/C=C\C/C=C\C/C=C\CCCC(=O)O[C@H](CO/C=C\CCCCCCCCCCCCCCCC)COP(=O)(O)OCCN [1-(1-enyl-stearoyl)-2-arachidonoyl-GPE (P-18:0/20:4)] | –
